Assay results reported in US9499552B2, “Pyrazolo[1,5-A]pyrimidine derivative and use of anti-tumor thereof” (YANTAI UNIVERSITY, priority 2014, dated 2016).

Assays:
[1] = molecular target: T1, TRPC6 ion channels (Mus musculus, UniProt Q61143); experiment: Fluorescent membrane potential (FMP) detection of TRPC6 activation; type: cell-based; conditions: M085 at 0.4 μM~30 μM; HEK293 cells permanently transfected with TRPC6
T1 construct: expressed in transfected cells; host or cells: HEK293 co-expressing M5 muscarinic receptor
T1 sequence (Q61143 1-930): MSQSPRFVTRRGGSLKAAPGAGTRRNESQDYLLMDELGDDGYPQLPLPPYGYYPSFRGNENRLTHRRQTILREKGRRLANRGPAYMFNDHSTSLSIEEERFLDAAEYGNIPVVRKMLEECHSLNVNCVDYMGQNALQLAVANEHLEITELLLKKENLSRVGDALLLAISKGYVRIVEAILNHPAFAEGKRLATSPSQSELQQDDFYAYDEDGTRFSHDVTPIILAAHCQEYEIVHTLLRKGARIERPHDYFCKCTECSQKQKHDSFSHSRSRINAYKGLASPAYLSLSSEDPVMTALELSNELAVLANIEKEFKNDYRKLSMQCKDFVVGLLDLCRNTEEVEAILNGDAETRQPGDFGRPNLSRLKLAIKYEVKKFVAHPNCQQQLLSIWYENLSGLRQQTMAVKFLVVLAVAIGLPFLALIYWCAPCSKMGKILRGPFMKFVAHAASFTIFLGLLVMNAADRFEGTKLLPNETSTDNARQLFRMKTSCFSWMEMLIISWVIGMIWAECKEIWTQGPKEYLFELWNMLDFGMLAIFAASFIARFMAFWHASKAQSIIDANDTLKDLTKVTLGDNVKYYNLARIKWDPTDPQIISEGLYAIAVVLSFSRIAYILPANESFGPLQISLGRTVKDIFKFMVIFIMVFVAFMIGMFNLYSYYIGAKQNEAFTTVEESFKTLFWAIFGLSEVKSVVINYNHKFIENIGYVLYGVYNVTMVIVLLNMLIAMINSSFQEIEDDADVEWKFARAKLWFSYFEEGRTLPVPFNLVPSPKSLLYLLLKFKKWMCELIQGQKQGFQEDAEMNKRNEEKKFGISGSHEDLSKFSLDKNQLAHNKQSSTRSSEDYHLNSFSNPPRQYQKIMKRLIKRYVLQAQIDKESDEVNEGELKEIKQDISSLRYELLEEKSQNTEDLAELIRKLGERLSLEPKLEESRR
Description: Pyrazolopyrimidines and their derivatives activated TRPC6 ion channels (FIG. 1). In HEK293 cells permanently transfected with TRPC6 ion channels, M085 was used as activator to detect the fluorescent membrane potential. Firstly, cells were stained with FLIPR membrane potential dyes (FMP). At 30 s, 0.1 μM, 0.4 μM, 1.1 μM, 3.3 μM, 10 μM, 30 μM of M085 were added, respectively.

[2] = molecular target: T2, mice TRPC6 (Mus musculus, UniProt Q61143); experiment: Fluorescence calcium flux (Fluo4) detection of TRPC6 activation; type: cell-based; conditions: HEK293 cells expressing mice TRPC6
T2 construct: expressed in transfected cells; host or cells: HEK293
T2 sequence (Q61143 1-930): T1 sequence (Q61143 1-930)
Description: Similar fluorescence calcium flux was used to detect the effect of M085 on [Ca^2+] concentration in HEK293 cells expressing mice TRPC6. The cells were stained using Ca^2+ indicator Fluo4. At 30 s, 0.1 μM, 0.4 μM, 1.1 μM, 3.3 μM, 10 μM, 30 μM of M085 were added. […] Wherein, M086 was subjected to fluorescent calcium flux detection and fluorescent membrane potential detection, respectively.

[3] = system: HEK293 cells which were not transfected with TRPC6 ion channels; experiment: Fluorescent membrane potential detection in non-transfected control cells; type: cell-based; conditions: M085 0.1-30 μM
[4] = molecular target: T3, TRPC6 channel (Mus musculus, UniProt Q61143); experiment: Whole-cell patch clamp assay, TRPC6 activation; type: cell-based; conditions: for activation effect for TRPC6 channel (whole-cell patch clamp): HEK293 cells clamped at -100~+100 mV
T3 construct: expressed in transfected cells; host or cells: HEK293
T3 sequence (Q61143 1-930): T1 sequence (Q61143 1-930)
Text: HEK293 cells were clamped at −100˜+100 mV in the whole-cell recording mode.

[5] = molecular target: T3, TRPC6 channel; experiment: Whole-cell patch clamp assay, TRPC6 inhibition (carbachol-activated); type: cell-based; conditions: for inhibition of TRPC6 channel (whole-cell patch clamp): HEK293 cells clamped at -100~+100 mV
Description: M107 is representative (FIG. 3B, C). HEK293 cells were clamped at −100˜+100 mV in whole-cell recording mode. TRPC6 ion channels activated by carbachol (CCh, 30 μM) was inhibited by M107 (20 μM). At −100˜+100 mV, 20 μM of M107 provided 60% and 20% of inhibition rate for CCh (n=5).

[6] = system: KB human oral epithelium carcinoma cell line; experiment: MTT cytotoxic activity, KB; type: cell-based; conditions: 72 h, read-out: IC50 cytotoxic activity in vitro
Description: (§1) After the cells in logarithmic growth phase were digested with 0.25% trypsin-EDTA, a cell suspension at a certain concentration was prepared. Depending on cell growth rate, they were inoculated in 96-well plates at 1000-2000 cells/well. To each well 100 μL of the cell suspension was added. After 24 h, fresh medium containing various concentrations of the compounds or the corresponding solvent were added at 100 μL per well (DMSO final concentration <0.1%). 5 to 7 dose groups were arranged for each test compound. Each group comprised at least 3 parallel wells. After further culturing at 37° C. for 72 h, the supernatant was discarded. 100 μL of fresh serum-free medium containing 0.5 mg/mL MTT was added to each well, further cultured for 2 h. After the supernatant was discarded, to each well was added 200 μL DMSO to dissolve MTT formazan precipitate. After mixing homogeneously by a microoscillator, optical density (OD) was measured at 450 nm of reference wavelength, and at 570 nm of detection wavelength by a Microplate reader. The tumor cells treated by the solvent control was used as the control group. The inhibition rate of tumor cells for the compounds were calculated by the following equation and IC50 was calculated by the half of inhibition equation: […]

[7] = system: Pc3 human prostate cancer cell line; experiment: MTT cytotoxic activity, Pc3; type: cell-based; conditions: 72 h, read-out: IC50 cytotoxic activity in vitro
Description: as §1

[8] = system: prostate cancer RM-1 transplanted tumor; experiment: Mice prostate cancer RM-1 transplanted tumor model; type: in vivo; conditions: for Inhibition rate of tumor growth / Tumor weight / body weight of Animals, Final / body weight of Animals, Initial: male C57/BL6 mice, i.p., Docetaxel 10 mg/kg × 3, M110 50 mg/kg × 4
Description: Male C57/BL6 mice (18-22 g) were used. The experiment procedures are summarized as follows: mice who had prostate cancer RM-1 and grown well were sacrificed by cervical dislocation. Under sterile conditions, tumor mass growing well was stripped off, homogenized, diluted with physiological saline in 1:4. Each mouse was inoculated 0.2 mL of the tumor solution in the armpit and back (approximately 2*10^6 cells). On the next day, the animals were randomized into groups and the administration began. Compound M110 was administered at 50 mg/kg by intraperitoneal injection at 24 h after inoculation. The dosing volume was 0.1 mL/10 g. At the same time, docetaxel control group and solvent control group were set. As for the docetaxel group, the animals were administered by intraperitoneal injection at 10 mg/kg dose, the dosing volume was 0.1 mL/10 g. After continuous administration for 10 days, the animals were sacrificed by cervical dislocation, weighed the body and the tumor, respectively. Inhibition rate of tumor growth (%) was calculated, and the results were statistically processed.

[9] = system: H460 human lung cancer cell line; experiment: MTT cytotoxic activity, H460; type: cell-based; conditions: 72 h, read-out: IC50 cytotoxic activity in vitro
Description: as §1

[10] = system: MCF7 human breast cancer cell line; experiment: MTT cytotoxic activity, MCF7; type: cell-based; conditions: 72 h, read-out: IC50 cytotoxic activity in vitro
Description: as §1

[11] = system: Du145 human prostate cancer cell line; experiment: MTT cytotoxic activity, Du145; type: cell-based; conditions: 72 h, read-out: IC50 cytotoxic activity in vitro
Description: as §1

[12] = system: RM-1 mouse prostate cancer cell line; experiment: MTT cytotoxic activity, RM-1; type: cell-based; conditions: RM-1, MTT, 72 h; read-out: IC50 cytotoxic activity in vitro
Description: as §1

[13] = system: Lncap human prostate cancer cell line; experiment: MTT cytotoxic activity, Lncap; type: cell-based; conditions: 72 h, read-out: IC50 cytotoxic activity in vitro
Description: as §1

With `CCOC(=O)N1CCC(c2cc(O)n3nc(C)c(-c4ccc(F)cc4)c3n2)CC1` [Compound M085] the “membrane depolarization (FMP fluorescence)” value [1] was “increase of membrane depolarization”, the “activating effect for TRPC6 ion channel (fluorescence calcium flux)” value [2] was “exhibited activating effect” and the “intracellular [Ca2+]” value ([2]; M085 at 3.3 μM~30 μM, Fluo4) was “significantly increased”. The “fluorescent change (FMP)” value [3] was “no significantly fluorescent change”, the “activation effect for TRPC6 channel (whole-cell patch clamp)” value (from here on “activation effect for TRPC6 channel”) [4] was “have activation effect” and the EC50 ([4]; HEK293 cells, concentration response 0.04-10 μM, n=5-7) was 2.5 µM.

For `Cc1nn2c(O)cc(C3CCN(C(=O)OCc4ccccc4)CC3)nc2c1-c1ccc(F)cc1` [Compound M086], the “activating effect for TRPC6 ion channel (fluorescence calcium flux)” value [2] was “exhibited activating effect” and the “activation effect for TRPC6 channel” value [4] was “have activation effect”.

With `Cc1nn2c(O)cc(C3CCN(C(=O)OCc4ccccc4)CC3)nc2c1-c1ccc(Cl)cc1` [Compound M091] the “activating effect for TRPC6 ion channel (fluorescence calcium flux)” value [2] was “exhibited activating effect” and the “activation effect for TRPC6 channel” value [4] was “have activation effect”.

For `CCOC(=O)N1CCC(c2cc(O)n3nc(C)c(-c4ccc(C(F)(F)F)cc4)c3n2)CC1` [Compound M092], the “activating effect for TRPC6 ion channel (fluorescence calcium flux)” value [2] was “exhibited activating effect” and the “activation effect for TRPC6 channel” value [4] was “have activation effect”.

`Cc1nn2c(O)cc(C3CCN(C(=O)OC(C)(C)C)CC3)nc2c1-c1ccc(F)cc1` [Compound M107] was tested, and the “inhibition rate for CCh-activated TRPC6 current, first value” ([5]; 20 μM compound, CCh 30 μM, at -100~+100 mV (first printed, -100 mV), n=5) was 60%, the “inhibition rate for CCh-activated TRPC6 current, second value” ([5]; 20 μM compound, CCh 30 μM, at -100~+100 mV (second printed, +100 mV), n=5) was 20% and the “inhibition of TRPC6 channel (whole-cell patch clamp)” value [5] was “inhibited TRPC6 channel”.

In the case of `CCOC(=O)N1CCC(C)(c2cc(O)n3nc(C)c(-c4ccc(F)cc4)c3n2)CC1` [Compound M110], the IC50 [6] is reported as 9.47 µM, the IC50 [7] is reported as 30.8 µM and the “inhibition of TRPC6 channel (whole-cell patch clamp)” value [5] is reported as “inhibited TRPC6 channel”. The “Inhibition rate of tumor growth” value [8] was 23%, the Tumor weight [8] was 2.0 ± 0.73 g and the “body weight of Animals, Final” value [8] was 21.33 ± 1.51 g. For the same compound, the “body weight of Animals, Initial” value [8] was 20.00 ± 0.76 g, the “pharmacological activity in vivo on RM-1 transplanted tumor growth” value ([8]; mice) was “inhibit growth of prostate cancer RM-1 transplanted tumor” and the IC50 [9] was 21.9 µM. For the same compound, the IC50 [10] was 12.1 µM, the IC50 [11] was greater than 100 µM and the IC50 [12] was 25.6 µM. The IC50 [13] was 4.33 µM.

For `CC(=O)O[C@@]12CO[C@@H]1C[C@H](O)[C@@]1(C)C(=O)[C@H](O)C3=C(C)[C@@H](OC(=O)[C@H](O)[C@@H](NC(=O)OC(C)(C)C)c4ccccc4)C[C@@](O)([C@@H](OC(=O)c4ccccc4)[C@H]21)C3(C)C` [Docetaxel, docetaxel, reference compound], the “Inhibition rate of tumor growth” value [8] was 32%, the Tumor weight [8] was 1.77 ± 0.61 g and the “body weight of Animals, Final” value [8] was 18.43 ± 2.17 g. The “body weight of Animals, Initial” value [8] was 20.00 ± 1.07 g.
